Assay results reported in US8624034B2, “Fluoro-pyridinone derivatives useful as antibacterial agents” (Pfizer Inc., priority 2011, dated 2014).
Values after ≈ are worked out from the molar mass of the structure shown. Like-named read-outs stand apart in the source and are kept apart here.

What was measured:
[1] = target: T1, Pseudomonas aeruginosa LpxC enzyme (Pseudomonas aeruginosa, UniProt P47205); assay: IC50 assay, LpxC enzyme from P. aeruginosa (PA LpxC enzyme IC50); type: biochemical; conditions: LpxC enzyme 0.1 nM, 25° C., 1 hour
T1 construct: made in house; host or cells: E. coli
T1 sequence (P47205 1-303): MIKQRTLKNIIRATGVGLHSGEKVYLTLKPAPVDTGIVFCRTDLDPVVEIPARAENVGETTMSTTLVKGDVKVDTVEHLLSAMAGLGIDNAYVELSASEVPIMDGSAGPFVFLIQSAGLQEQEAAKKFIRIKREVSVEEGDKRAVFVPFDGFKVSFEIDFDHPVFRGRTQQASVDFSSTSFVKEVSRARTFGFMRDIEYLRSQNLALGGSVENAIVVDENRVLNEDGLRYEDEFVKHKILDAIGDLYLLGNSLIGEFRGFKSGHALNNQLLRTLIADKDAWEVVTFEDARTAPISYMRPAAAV
Description: In order to assess the compounds biological activity, selected in vitro assays were conducted on selected compounds. One of the assays measured the compounds ability to disrupt the synthesis of lipopolysaccharide, LPS, which is a component of the outer membrane of Gram-negative bacteria. Disruption of this synthesis is lethal to the bacteria. The assay determined the compound's ability to inhibit LpxC, which is the first enzyme in the biosynthetic pathway for LPS (measured as IC50). Additionally, MICs (minimal inhibitory concentrations) were determined for several bacteria. The specific protocols are described below:
A) IC50 Assay, LpxC Enzyme from P. aeruginosa (Labeled as PA LpxC Enzyme IC50):
At the end of 1 hour, 5 ul of 1 N HCl was added to stop the enzyme reaction, the plates were centrifuged, and then processed with the BioTrove Rapidfire HTMS Mass Spectrometry System. A no-enzyme control was used in calculating the IC50 values from the percent conversion values.

[2] = tested on: Acinetobacter baumannii/haemolyticus, multidrug-resistant clinical isolate (AB-3167); assay: MIC determination, AB-3167; type: cell-based; conditions: Table 3, lower of duplicate values
Description: (§1) The in vitro antibacterial activity of compounds described in the Examples was evaluated by minimum inhibitory concentration (MIC) testing according to Clinical and Laboratory Standards Institute (CLSI). See: Clinical and Laboratory Standards Institute. Methods for Dilution Antimicrobial Susceptibility Tests for Bacteria that Grow Aerobically; Approved Standard-Eighth Edition. CLSI document M7-A8 [ISBN 1-56238-689-1]. Clinical and Laboratory Standards Institute, 940 West Valley Road, Suite 1400, Wayne, Pa. 19087-1898 USA, 2006; also Clinical and Laboratory Standards Institute. Performance Standards for Antimicrobial Susceptibility Testing; Twentieth Informational Supplement. CLSI document M100-S20 [ISBN 1-56238-716-2]. Clinical and Laboratory Standards Institute.
(§2) The MIC determination is a standard laboratory method for evaluating the antibacterial activity of a compound. The MIC represents the lowest drug concentration that inhibits visible growth of bacteria following overnight incubation. […] Typically, the drug concentration range is broken down into 2-fold increments (e.g. 0.06 μg/mL, 0.12 μg/mL. 0.25 μg/mL, 0.50 μg/mL, 1.0 μg/mL, etc.) and the various drug concentrations are all individually incubated overnight with approximately the same number of bacteria. The MIC is then determined by visually inspecting the drug effect at each concentration, and identifying the lowest drug concentration that has inhibited bacterial growth as compared to the drug free control. Typically, bacteria continue to grow at drug concentrations lower than the MIC and don't grow at concentrations at and above the MIC.
(§3) The MIC values described in Table 2 and 3 below were derived from assays wherein each test compound was evaluated in duplicate. In cases where the duplicate values varied by 0-2-fold, the lower of the two values was reported below. Generally speaking, if the duplicate values varied by more than 2-fold, the assay was considered non-valid and was repeated until the variation between duplicate runs was ≦2-fold. In line with the CLSI guidelines referred to above, both control organisms and reference compounds were utilized in each MIC assay to provide proper quality control. MIC values generated with these control organisms and reference compounds were required to fall within a defined range for the assay to be considered valid and be included herein. Those skilled in the art will recognize that MIC values can and do vary from experiment to experiment. Generally speaking, it should be recognized that MIC values often vary +/−2-fold from experiment to experiment. While a single MIC is reported for each compound and each microorganism, the reader should not conclude that each compound was only tested once. Several of the compounds were subjected to multiple tests. The data reported in Tables 2 and 3 is reflective of the compounds relative activity and different MICs may have been generated on these occasions in line with the guidelines described above.
(§4) The following bacterial strains were used in these MIC determinations:
2) Acinetobacter baumannii/haemolyticus: Multidrug-resistant clinical isolate labeled as AB-3167 in Tables 2 and 3;

[3] = tested on: Escherichia coli EC-1: VOGEL, mouse virulent; assay: MIC determination, EC-1; type: cell-based; conditions: Escherichia coli, read-out: EC-1 (MIC), Table 3, lower of duplicate values
Description: as §1, §2, §3, §4
3) Escherichia coli EC-1: VOGEL, mouse virulent labeled as EC-1 in Tables 2 and 3;

[4] = tested on: PA:UC12120; assay: MIC determination, PA:UC12120 (Table 3); type: cell-based, Pseudomonas aeruginosa; conditions: Pseudomonas aeruginosa, UC12120, Table 3, lower of duplicate values
Description: as §1, §2, §3
In Table 3 below, column 1 corresponds to the Example number, column 2 provides the IUPAC name, columns 3-6 provide in vitro biological data generated in the same manner as in Table 2, columns 7 and 8 provide the retention times and mass spectra generated via LCMS, using the method described below. All data is not currently available for all compounds, as indicated by a blank cell in Table 3.

Structure (SMILES)	IC50 ([1]; Table 3, read-out: PA:IC50) [nM]	MIC [2] [µg/mL]	MIC [3] [µg/mL]	MIC [4] [µg/mL]	IC50 ([1]; PA:IC50, Table 3) [nM]
CN1Cc2cc(-c3cc(=O)n(CCC(C)(C(=O)NO)S(C)(=O)=O)cc3F)ccc2C1=O (stereo not drawn) [Example 64, 4-[5-fluoro-4-(2-methyl-1-oxo-2,3-dihydro-1H-isoindol-5-yl)-2-oxopyridin-1(2H)-yl]-N-hydroxy-2-methyl-2-(methylsulfonyl)butanamide]	7.2	> 64	> 64	64 (≈ 142 µM)	
CC(CCn1cc(F)c(-c2cccnc2)cc1=O)(C(=O)NO)S(C)(=O)=O (stereo not drawn) [Example 65, 4-(5′-fluoro-2′-oxo-3,4′-bipyridin-1′(2′H)-yl)-N-hydroxy-2-methyl-2-(methylsulfonyl)butanamide]	82.3	> 64	> 64	32 (≈ 83.5 µM)	
CC(CCn1cc(F)c(-c2ccc(Cl)cc2F)cc1=O)(C(=O)NO)S(C)(=O)=O (stereo not drawn) [Example 66, 4-[4-(4-chloro-2-fluorophenyl)-5-fluoro-2-oxopyridin-1(2H)-yl]-N-hydroxy-2-methyl-2-(methylsulfonyl)butanamide]	0.8	64 (≈ 147 µM)	0.5 (≈ 1.15 µM)	0.5 (≈ 1.15 µM)	
COc1cc(-c2cc(=O)n(CCC(C)(C(=O)NO)S(C)(=O)=O)cc2F)ccc1F (stereo not drawn) [Example 67, 4-[5-fluoro-4-(4-fluoro-3-methoxyphenyl)-2-oxopyridin-1(2H)-yl]-N-hydroxy-2-methyl-2-(methylsulfonyl)butanamide]	4.5	64 (≈ 149 µM)	16 (≈ 37.2 µM)	4 (≈ 9.29 µM)	
CN(C)C(=O)c1ccc(-c2cc(=O)n(CCC(C)(C(=O)NO)S(C)(=O)=O)cc2F)cc1 (stereo not drawn) [Example 68, 4-{5-fluoro-1-[4-(hydroxyamino)-3-methyl-3-(methylsulfonyl)-4-oxobutyl]-2-oxo-1,2-dihydropyridin-4-yl}-N,N-dimethylbenzamide]	34.3	> 64	> 64	> 64	
COc1ncccc1-c1cc(=O)n(CCC(C)(C(=O)NO)S(C)(=O)=O)cc1F (stereo not drawn) [Example 69, 4-(5′-fluoro-2-methoxy-2′-oxo-3,4′-bipyridin-1′(2′H)-yl)-N-hydroxy-2-methyl-2-(methylsulfonyl)butanamide]	16.6	> 64	64 (≈ 155 µM)	8 (≈ 19.4 µM)	
CC(CCn1cc(F)c(-c2ccc(C#N)nc2)cc1=O)(C(=O)NO)S(C)(=O)=O (stereo not drawn) [Example 70, 4-(6-cyano-5′-fluoro-2′-oxo-3,4′-bipyridin-1′(2′H)-yl)-N-hydroxy-2-methyl-2-(methylsulfonyl)butanamide]	33.3	> 64	> 64	64 (≈ 157 µM)	
Cn1cnc2cc(-c3cc(=O)n(CCC(C)(C(=O)NO)S(C)(=O)=O)cc3F)cnc21 (stereo not drawn) [Example 71, 4-[5-fluoro-4-(3-methyl-3H-imidazo[4,5-b]pyridin-6-yl)-2-oxopyridin-1(2H)-yl]-N-hydroxy-2-methyl-2-(methylsulfonyl)butanamide]	> 100	> 64	> 64	> 64	
CC(CCn1cc(F)c(-c2cnc3ccoc3c2)cc1=O)(C(=O)NO)S(C)(=O)=O (stereo not drawn) [Example 72, 4-(5-fluoro-4-furo[3,2-b]pyridin-6-yl-2-oxopyridin-1(2H)-yl)-N-hydroxy-2-methyl-2-(methylsulfonyl)butanamide]	34.8	> 64	64 (≈ 151 µM)	32 (≈ 75.6 µM)	
CC(CCn1cc(F)c(-c2ccncc2F)cc1=O)(C(=O)NO)S(C)(=O)=O (stereo not drawn) [Example 73, 4-(3′,5-difluoro-2-oxo-4,4′-bipyridin-1(2H)-yl)-N-hydroxy-2-methyl-2-(methylsulfonyl)butanamide]	8.3	> 64	> 64	8 (≈ 19.9 µM)	
COc1cc(-c2cc(=O)n(CCC(C)(C(=O)NO)S(C)(=O)=O)cc2F)ccc1C#N (stereo not drawn) [Example 74, 4-[4-(4-cyano-3-methoxyphenyl)-5-fluoro-2-oxopyridin-1(2H)-yl]-N-hydroxy-2-methyl-2-(methylsulfonyl)butanamide]	5.9	> 64	64 (≈ 146 µM)	16 (≈ 36.6 µM)	
COc1cc(-c2cc(=O)n(CCC(C)(C(=O)NO)S(C)(=O)=O)cc2F)cnc1OC (stereo not drawn) [Example 75, 4-(5′-fluoro-5,6-dimethoxy-2′-oxo-3,4′-bipyridin-1′(2′H)-yl)-N-hydroxy-2-methyl-2-(methylsulfonyl)butanamide]	45.4	> 64	> 64	> 64	
CCOc1ccc(-c2cc(=O)n(CCC(C)(C(=O)NO)S(C)(=O)=O)cc2F)cc1 (stereo not drawn) [Example 76, 4-[4-(4-ethoxyphenyl)-5-fluoro-2-oxopyridin-1(2H)-yl]-N-hydroxy-2-methyl-2-(methylsulfonyl)butanamide]	1.1	> 64	0.25 (≈ 0.586 µM)	0.5 (≈ 1.17 µM)	
CC(CCn1cc(F)c(-c2ccc(CCC#N)cc2)cc1=O)(C(=O)NO)S(C)(=O)=O (stereo not drawn) [Example 77, 4-{4-[4-(2-cyanoethyl)phenyl]-5-fluoro-2-oxopyridin-1(2H)-yl}-N-hydroxy-2-methyl-2-(methylsulfonyl)butanamide]	2.6	> 64	32 (≈ 73.5 µM)	4 (≈ 9.19 µM)	
CC(CCn1cc(F)c(-c2ccccc2)cc1=O)(C(=O)NO)S(C)(=O)=O (stereo not drawn) [Example 78, 4-(5-fluoro-2-oxo-4-phenylpyridin-1(2H)-yl)-N-hydroxy-2-methyl-2-(methylsulfonyl)butanamide]		> 64	4 (≈ 10.5 µM)	1 (≈ 2.61 µM)	2.8
CN(C)Cc1ccc(-c2cc(=O)n(CCC(C)(C(=O)NO)S(C)(=O)=O)cc2F)cc1 (stereo not drawn) [Example 79, 4-[4-{4-[(dimethylamino)methyl]phenyl}-5-fluoro-2-oxopyridin-1(2H)-yl]-N-hydroxy-2-methyl-2-(methylsulfonyl)butanamide]	35.9	> 64	> 64	16 (≈ 36.4 µM)	
CC(CCn1cc(F)c(-c2ccc(O)nc2)cc1=O)(C(=O)NO)S(C)(=O)=O (stereo not drawn) [Example 80, 4-(5′-fluoro-6-hydroxy-2′-oxo-3,4′-bipyridin-1′(2′H)-yl)-N-hydroxy-2-methyl-2-(methylsulfonyl)butanamide]	> 100	> 64	> 64	> 64	
CC(=O)Nc1ccc(-c2cc(=O)n(CCC(C)(C(=O)NO)S(C)(=O)=O)cc2F)cc1 (stereo not drawn) [Example 81, 4-[4-(4-acetamidophenyl)-5-fluoro-2-oxopyridin-1(2H)-yl]-N-hydroxy-2-methyl-2-(methylsulfonyl)butanamide]	24.3	> 64	64 (≈ 146 µM)	32 (≈ 72.8 µM)	
